From patent publication US7396858B2, “Biguanide derivative and therapeutic agent for diabetes containing the same” (Chugai Seiyaku Kabushiki Kaisha, priority 2002, dated 2008)
Values joined by “and” are separate entries in the source; they are usually repeats but may differ in a detail not shown here. Equal values may be shown once.

Test system: female mice (C57BLKS/J-m +/+ Lepr<db> (db/db))
Test: Oral glucose tolerance test (blood glucose and blood lactic acid levels)
Format: in vivo
Details: subcutaneous, AUC up to 2 hours vs solvent group; for Blood glucose reduction rate (%): 30 min before oral glucose 3 g/kg; for Blood lactic acid level increase rate (%): oral glucose tolerance test
Description: Measurement of blood glucose reduction rate and blood lactic acid levels by the aforementioned oral glucose tolerance test may be carried out by a publicly known method, and preferred methods are described below. Specifically, 11- to 17-week-old female mice (C57BLKS/J-m +/+ Lepr (db/db)) are starved for 18-24 hours. A group of five or six mice is used for the test. Blood is sampled from the tail for measurement of the blood glucose levels and blood lactic acid levels before treatment as controls. After sampling, the biguanide derivative is dissolved in phosphate-buffered physiological saline at a suitable concentration and subcutaneously administered at a dose of 5 ml/kg. As controls are prepared mice administered only the solvent. Glucose is then administered orally at a dose of 3 g/6 ml/kg at 30 minutes after administration of the compound or solvent as an oral glucose tolerance test. Blood is sampled from the tail for measurement of the blood glucose levels and the blood lactic acid levels 30 minutes, 1 hour and 2 hours after glucose administration. The blood glucose levels are measured using a New Blood Sugar Test (Roche Diagnostics) or a Glucose CII-Test Wako (Wako Pure Chemical Industries, Ltd.). The blood lactic acid levels are measured using an “Asuka Sigma” (Sigma Diagnostics).
The blood glucose reduction rate and the blood lactic acid level increase rate are calculated according to the following formulas. Blood glucose reduction rate (%)=[(AUC for blood glucose increase level of solvent-administered group−AUC for blood glucose increase level of compound-administered group)/AUC for blood glucose increase level of solvent-administered group]×100
The blood lactic acid level increase rate is calculated according to the following formula. Blood lactic acid level increase rate (%)=[(AUC for blood lactic acid level of compound-administered group−AUC for blood lactic acid level of solvent-administered group)/AUC for blood lactic acid level of solvent-administered group]×100
Eleven- to seventeen-week-old female mice (C57BLKS/J-m +/+ Lepr (db/db)) were starved for 18-24 hours, and a group of six mice was used for the test. Blood was sampled from the tail for measurement of the blood glucose levels and blood lactic acid levels before treatment. […] As a control, the solvent alone was subcutaneously administered to mice similarly.
Glucose was then administered orally at a dose of 3 g/6 ml/kg at 30 minutes after administration of the compound or solvent as an oral glucose tolerance test. Blood was sampled from the tail for measurement of the blood glucose levels and blood lactic acid levels 30 minutes, 1 hour and 2 hours after glucose administration. The blood glucose levels were measured using a New Blood Sugar Test (Roche Diagnostics) or a Glucose CII-Test Wako (Wako Pure Chemical Industries, Ltd.). The blood lactic acid levels were measured using an “Asuka Sigma” (Sigma Diagnostics).

CN(C)C(=N)N=C(N)N [Metformin]
Blood glucose reduction rate (%) (dosage 200 mg/kg): 56.0% and 41.8%

[H]/N=C(/N)N/C(=N/[H])NCCc1ccccc1 [Phenformin]
Blood glucose reduction rate (%) (dosage 37.5 mg/kg): 39.5% and 72.7%
Blood lactic acid level increase rate (%) (dosage 37.5 mg/kg): 46.4% and 83.1%
Blood glucose reduction rate (%) (dosage 75 mg/kg): 64.5% and 78.0% and 60.8% and 61.4% and 72.8% and 69.6%
Blood lactic acid level increase rate (%) (dosage 75 mg/kg): 93.6% and 151.6% and 94.7% and 120.8% and 141.1% and 114.8%

N=C(N)NC(=N)NCc1ccoc1 [1-[(Furan-3-yl)methyl]biguanide, 1-[(furan-3-yl)methyl]biguanide]
Blood glucose reduction rate (%) (dosage 50 mg/kg): 40.3%
Blood glucose reduction rate (%) (dosage 75 mg/kg): 65.5%
Blood lactic acid level increase rate (%) (dosage 75 mg/kg): 9.7%
